Reference: publication PMC6225228, “Design, Synthesis and Evaluation of N-pyrazinylbenzamides as Potential Antimycobacterial Agents” (Molecules : A Journal of Synthetic Chemistry and Natural …, 2018)
Converted amounts (≈) assume the structure as drawn. Where two headings read alike, the source gives them in different places.

Tests used:
[1] = system: Mycobacterium tuberculosis H37Rv CNCTC My 331/88 (ATCC 27294); test: Antimycobacterial microdilution MABA, M. tuberculosis; assay type: cell-based; settings: for MIC: Mycobacterium tuberculosis
[2] = system: M. kansasii CNCTC My 235/80 (ATCC 12478); test: Antimycobacterial microdilution MABA, M. kansasii; assay type: cell-based, Mycobacterium kansasii; settings: for MIC: Mycobacterium kansasii
[3] = system: M. avium ssp. avium CNCTC My 80/72 (ATCC 15769); test: Antimycobacterial microdilution MABA, M. avium; assay type: cell-based, Mycobacterium avium; settings: for MIC: Mycobacterium avium
[4] = system: Mycobacterium smegmatis CCM 4622 (ATCC 607); test: Antimycobacterial microdilution, M. smegmatis; assay type: cell-based; settings: Mycolicibacterium smegmatis, read-out: M. smeg. ATCC 607 MIC
[5] = system: Staphylococcus aureus CCM 4516/08; test: Antibacterial microdilution broth, SA; assay type: cell-based; settings: Staphylococcus aureus
[6] = system: Staphylococcus aureus H 5996/08 methicillin resistant; test: microbe, parasite or virus in culture; assay type: cell-based; settings: Staphylococcus aureus, MRSA, read-out: MIC MRSA
[7] = system: Staphylococcus epidermidis H 6966/08; test: Antibacterial microdilution broth, SE; assay type: cell-based; settings: Staphylococcus epidermidis, read-out: MIC SE
[8] = system: Enterococcus sp. J 14365/08; test: Antibacterial microdilution broth, EF; assay type: cell-based; settings: Enterococcus, read-out: MIC EF
[9] = system: Escherichia coli CCM 4517; test: Antibacterial microdilution broth, EC; assay type: cell-based; settings: Escherichia coli, read-out: MIC EC
[10] = system: Pseudomonas aeruginosa CCM 1961; test: Antibacterial microdilution broth, PA; assay type: cell-based; settings: Pseudomonas aeruginosa, read-out: MIC PA
[11] = system: Candida albicans ATCC 44859; test: Antifungal microdilution broth, CA; assay type: cell-based; settings: Candida albicans, read-out: MIC CA
Candida tropicalis 156 = test: Antifungal microdilution broth, CT; assay type: cell-based; settings: read-out: MIC CT
Candida krusei E28 = test: Antifungal microdilution broth, CK; assay type: cell-based; settings: Pichia kudriavzevii, read-out: MIC CK
Candida glabrata 20/I = test: Antifungal microdilution broth, CG; assay type: cell-based; settings: Nakaseomyces glabratus, 20/I, read-out: MIC CG
Trichosporon asahii 1188 = test: Antifungal microdilution broth, TA; assay type: cell-based; settings: read-out: MIC TA
[12] = system: Aspergillus fumigatus 231; test: Antifungal microdilution broth, AF; assay type: cell-based; settings: read-out: MIC AF
[13] = system: Lichtheimia corymbifera 272; test: Antifungal microdilution broth, LC; assay type: cell-based; settings: read-out: MIC LC
[14] = system: Trichophyton interdigitale 445; test: Antifungal microdilution broth, TI; assay type: cell-based; settings: read-out: MIC TI
[15] = Middlebrook 7H9 with OADC growth supplement, pH = 6.6, MABA
[16] = read-out: Mtb H37Rv ATCC 27294 MIC, Middlebrook 7H9 with OADC growth supplement, pH = 6.6, MABA
[17] = ATCC12478, pH 6.6, read-out: M. kans. ATCC 12478 MIC, Middlebrook 7H9 with OADC, pH 6.6, MABA
[18] = ATCC15769, pH 6.6, read-out: M. avium ATCC 15769 MIC
[19] = CCM4516, 24 h, read-out: MIC SA, 24 h
[20] = CCM4516, 48 h, read-out: MIC SA, 48 h
[21] = Trichosporon asahii, 1188, 24 h
[22] = Trichosporon asahii, 1188, 48 h
[23] = Aspergillus fumigatus, 231, 24 h
[24] = Aspergillus fumigatus, 231, 48 h
[25] = Lichtheimia corymbifera, 272, 24 h
[26] = Lichtheimia corymbifera, 272, 48 h
[27] = Trichophyton interdigitale, 445, 72 h
[28] = Trichophyton interdigitale, 445, 120 h
[29] = Middlebrook 7H9 with OADC growth supplement, pH = 6.6, MABA, read-out: Mtb H37Rv ATCC 27294 MIC
[30] = ATCC12478, Middlebrook 7H9 with OADC, pH 6.6, MABA, read-out: M. kans. ATCC 12478 MIC
[31] = ATCC15769, Middlebrook 7H9 with OADC, pH 6.6, MABA, read-out: M. avium ATCC 15769 MIC
[32] = Middlebrook 7H9 with OADC, resazurin
[33] = Middlebrook 7H9 with OADC, pH 6.6, MABA

Row | SMILES | Mtb H37Rv ATCC 27294 MIC [1, 15] [µg/mL] | MIC [1, 16] [µg/mL] | MIC [2, 17] [µg/mL] | MIC [3, 18] [µg/mL] | MIC [4] [µg/mL] | MIC [5, 19] [µM] | MIC [5, 20] [µM] | MIC ([6]; 24 h) [µM] | MIC ([6]; 48 h) [µM] | MIC ([7]; H6966/08, 24 h) [µM] | MIC ([7]; H6966/08, 48 h) [µM] | MIC ([8]; SP.J14365/08, 24 h) [µM] | MIC ([8]; SP.J14365/08, 48 h) [µM] | MIC ([9]; CCM4517, 24 h) [µM] | MIC ([9]; CCM4517, 48 h) [µM] | melting point [°C] | MIC [1, 29] [µg/mL] | MIC [2, 30] [µg/mL] | MIC [3, 31] [µg/mL] | MIC [4, 32] [µg/mL] | also measured
1 | Cc1ccc(C(=O)Nc2cnccn2)cc1 [Compound 1h] | >100 | > 100 | > 100 | > 100 | ≥ 500 | > 500 | > 500 | > 500 | > 500 | 500 (≈ 107 µg/mL) | 500 (≈ 107 µg/mL) | > 500 | > 500 | > 500 | > 500 | 163.3 to 166 |  |  |  |  | MIC ([10]; CCM1961, 72 h): 500 µM (≈ 107 µg/mL); MIC ([10]; CCM1961, 120 h): 500 µM (≈ 107 µg/mL); MIC ([11]; ATCC44859, 24 h): 500 µM (≈ 107 µg/mL); MIC ([11]; ATCC44859, 48 h): 500 µM (≈ 107 µg/mL); MIC (Candida tropicalis 156; Candida tropicalis, 156, 24 h): > 500 µM; MIC (Candida tropicalis 156; Candida tropicalis, 156, 48 h): > 500 µM; MIC (Candida krusei E28; E28, 24 h): > 500 µM; MIC (Candida krusei E28; E28, 48 h): > 500 µM; MIC (Candida glabrata 20/I; 24 h): > 500 µM; MIC (Candida glabrata 20/I; 48 h): > 500 µM; MIC (Trichosporon asahii 1188; [21]): > 500 µM; MIC (Trichosporon asahii 1188; [22]): > 500 µM; MIC [12, 23]: > 500 µM; MIC [12, 24]: > 500 µM; MIC [13, 25]: > 500 µM; MIC [13, 26]: > 500 µM; MIC [14, 27]: > 500 µM; MIC [14, 28]: > 500 µM
2 | O=C(Nc1cnccn1)c1cccc(O)c1 [Compound 1c] |  | > 100 | > 100 | > 100 | ≥ 500 | > 500 | > 500 | > 500 | > 500 | > 500 | > 500 | > 500 | > 500 | > 500 | > 500 | 192.2 to 193.7 |  |  |  |  | MIC ([10]; CCM1961, 72 h): > 500 µM; MIC ([10]; CCM1961, 120 h): > 500 µM; MIC ([11]; ATCC44859, 24 h): > 500 µM; MIC ([11]; ATCC44859, 48 h): > 500 µM; MIC (Candida tropicalis 156; Candida tropicalis, 156, 24 h): > 500 µM; MIC (Candida tropicalis 156; Candida tropicalis, 156, 48 h): > 500 µM; MIC (Candida krusei E28; E28, 24 h): > 500 µM; MIC (Candida krusei E28; E28, 48 h): > 500 µM; MIC (Candida glabrata 20/I; 24 h): > 500 µM; MIC (Candida glabrata 20/I; 48 h): > 500 µM; MIC (Trichosporon asahii 1188; [21]): > 500 µM; MIC (Trichosporon asahii 1188; [22]): > 500 µM; MIC [12, 23]: > 500 µM; MIC [12, 24]: > 500 µM; MIC [13, 25]: > 500 µM; MIC [13, 26]: > 500 µM; MIC [14, 27]: > 500 µM; MIC [14, 28]: > 500 µM
3 | COc1ccc(C(=O)Nc2cncc(Cl)n2)cc1 [Compound 3g] |  |  |  |  |  |  |  |  |  |  |  |  |  |  |  | 196.9 to 198.8 | > 100 | > 100 | > 100 | ≥ 500 | 
4 | O=C(Nc1cnc(Cl)cn1)c1cccc(C(F)(F)F)c1 [Compound 2n] |  |  |  |  |  |  |  |  |  |  |  |  |  |  |  | 155.4 to 156.4 | 25 (≈ 82.9 µM) | > 100 | > 100 | ≥ 500 | M. kans. ATCC 12478 MIC [2, 33]: >100 µg/mL; M. avium ATCC 15769 MIC [3, 33]: >100 µg/mL
5 | O=C(Nc1cncc(Cl)n1)c1ccc(Cl)cc1 [Compound 3l] | >100 |  |  |  |  |  |  |  |  |  |  |  |  |  |  | 193.8 to 194.7 | > 100 | > 100 | > 100 | ≥ 500 | 
